Assays:
H1792 (lung) = test: CellTiterGlo Cell Proliferation Assay (2D), H1792; format: cell-based; conditions: Homo sapiens, NCI-H1792, 96 hours
Procedure: (§1) The purpose of this assay is to evaluate the growth of KRas G12C mutant tumor lines following treatment with a test compound. A panel of tumor cell lines harboring KRas G12C or other KRas mutations are collected (Table 25). All cell lines are from ATCC or other sources indicated.
(§2) Typically cells are cultured in RPMI1640 or Dulbecco's modified Eagle's medium (DMEM, GIBCO) supplemented with 10% FBS (GIBCO, Invitrogen). […] The cells are treated with compound for 96 hours, and then are analyzed for viability using the CellTiterGlo® Luminescent Cell Viability Assay® (Promega #G7572 for 2D) according to manufacturer's instructions and an EnVision™ plate reader. Nonlinear regression and sigmoidal dose-response curves are used to calculate the half maximal inhibitory concentration (IC50) with GraphPad Prism 4® software.

SW1463 (colon) = test: CellTiterGlo Cell Proliferation Assay (2D), SW1463; format: cell-based; conditions: Homo sapiens, 96 hours
Procedure: as §1, §2

H2122 (lung) = test: CellTiterGlo Cell Proliferation Assay (2D), H2122; format: cell-based; conditions: Homo sapiens, NCI-H2122, 96 hours
Procedure: as §1, §2

KYSE-410 (esoph) = test: CellTiterGlo Cell Proliferation Assay (2D), KYSE-410; format: cell-based; conditions: Homo sapiens, 96 hours
Procedure: as §1, §2

LXFA-983L (lung) = test: CellTiterGlo Cell Proliferation Assay (2D), LXFA-983L; format: cell-based; conditions: 96 hours
Procedure: as §1, §2

A549 (lung) = test: CellTiterGlo Cell Proliferation Assay (2D), A549 (KRas G12S); format: cell-based; conditions: Homo sapiens, A549 (lung, KRas G12S), 2D, 96 hours
Procedure: as §1, §2

active KRas = active KRas (Homo sapiens, UniProt P01116, G12C); test: In vivo target inhibition, active KRas ELISA of tumor lysates, lung cancer H358 xenograft model; design: from tissue; host or cells: H358 xenograft tumours grown subcutaneously in nude female mice; conditions: NCI-H358, mouse, po, H358 xenograft mice, 8 hours, read-out: % Inhibition Active RAS
Procedure: (§3) The purpose of these assays is to evaluate in vivo target inhibition of an orally administered test compound. Human lung cancer H358 cells, or pancreatic cancer MiaPaca-2 cells, are implanted into nude mice xenograft tumor models. H358 or MiaPaca-2 cells (10×106 in a 1:1 Matrigel® mix, 0.2 mL total volume) are implanted by subcutaneous injection in hind leg of nude female mice (Harlan Laboratories). […] Treatment is initiated with oral administration (gavage) of a test compound or vehicle (20% Captisol®, 25 mM phosphate, pH 2.0 in 0.2 mL) when the tumor size reaches approximately 300 mg.
(§4) For in vivo target inhibition and PD analysis, tumors are ground by mortar and pestle on dry ice and tumor fragments are added to 800 μL of lysis buffer containing 1% Triton™ X-100, 25 mM Tris pH7.5, 150 mM sodium chloride, 1 mM EDTA, and 1 mM EGTA with Halt protease and phosphatase inhibitor cocktail (Thermo Scientific, cat. no. 1861281) in lysing matrix D tubes (MP Biomedical®, cat. no. 6913-500) with one additional large bead (MP Biomedical® ¼″ ceramic sphere bead cat. no. 6540-412) per tube. Tumor fragments are homogenized in a Thermo Bio101® fast prep (FP120) at setting 4 for […] while cold for a total of 2 times. Lysates are spun at 14,000 rpm for 10 minutes at 4° C. to clarify. Protein estimation is done on the lysate supernatant using a BioRad Dc® protein assay and lysates are diluted in complete lysis/binding buffer from the Ras GTPase Chemi ELISA Kit® (Active Motif, cat. no. 52097). The active KRas ELISA is performed as follows: glutathione-coated ELISA wells are incubated with diluted RAF1-GST in complete lysis/binding buffer for 1 hour at 4° C. with gentle agitation. Wells are washed 3 times with wash buffer and 100 μg of lysates are added to each well and incubated at ambient temperature for 1 hour with mild agitation. The wells are washed an additional 3 times, then primary antibody, diluted in antibody binding buffer, is added to each well. The plates are incubated for 1 hour. The wells are washed 3 more times before adding HRP-conjugated secondary antibody, diluted in antibody binding buffer, to each well. The plates are incubated at ambient temperature for 1 hour. ELISA wells are washed 4 times, chemiluminescent reagent is added and then luminescence is read. For pERK Meso Scale Discovery ELISA, 25 μg of protein containing 0.1% SDS is used; Meso Scale Discovery Whole Cell Lysate Kit for pERK is provided by Meso Scale Discovery.
(§5) The purpose of this assay is to evaluate the dose dependent in vivo target inhibition and pharmacodynamic effects in a lung cancer model. The test compound is dosed in lung cancer H358 mouse xenograft model at a dose range from 12.5 to 100 mg/kg. The tumor samples are collected 8 hours post a single dose. The tumor lysates are prepared and the inhibition of pERKand active KRas is measured as described above.
(§6) The purpose of this assay is to evaluate the time dependent in vivo target inhibition and pharmacodynamic effects in a lung cancer model. […] After a single dose, the tumor samples are harvested at 2, 4, 8, 12 and 24 hour post doing. The tumor lysates are prepared and the inhibition of pERK and active KRas is measured as described above.

pERK = test: In vivo pharmacodynamic effect, pERK Meso Scale Discovery ELISA of tumor lysates, lung cancer H358 xenograft model; design: species or system mouse; conditions: Mus musculus, NCI-H358, po, 8 h, H358 xenograft mice, 8 hours, read-out: % Inhibition of pERK
Procedure: as §3, §4, §5, §6

Calu-1 (lung) = test: CellTiterGlo Cell Proliferation Assay (2D), Calu-1; format: cell-based; conditions: Homo sapiens, 96 hours
Procedure: as §1, §2

Sequence of active KRas (P01116 1-188 isoform P01116-2 G12C): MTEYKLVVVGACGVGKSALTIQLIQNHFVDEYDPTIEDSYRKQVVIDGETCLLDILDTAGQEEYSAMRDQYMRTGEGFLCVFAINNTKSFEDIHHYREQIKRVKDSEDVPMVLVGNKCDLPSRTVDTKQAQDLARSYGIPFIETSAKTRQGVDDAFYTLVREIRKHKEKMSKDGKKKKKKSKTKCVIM

IC50 (H1792 (lung)): 4350 nM
IC50 (SW1463 (colon)): 4 nM
IC50 (H2122 (lung)): 660 nM
IC50 (A549 (lung)): > 10000 nM
inhibition at 12.5 mg/kg (active KRas; single oral dose 12.5 mg/kg): 14.2%
inhibition at 25 mg/kg (active KRas; single oral dose 25 mg/kg): 35.1%
inhibition at 50 mg/kg (active KRas; single oral dose 50 mg/kg): 31.5%
inhibition at 100 mg/kg (active KRas; single oral dose 100 mg/kg): 69.3%
IC50 (Calu-1 (lung)): 1140 nM
SMILES: C=CC(=O)N1CCN2C(=O)c3cc(F)c(-c4cccc5sc(N)c(C#N)c45)c(Cl)c3OCC[C@H]2C1 [Example 34, 4-[(13aS)-10-Chloro-8-fluoro-6-oxo-2-prop-2-enoyl-1,3,4,12,13,13a-hexahydropyrazino[2,1-d][1,5]benzoxazocin-9-yl]-2-amino-benzothiophene-3-carbonitrile]
inhibition at 10 µM (H1792 (lung); 10 μM): 56.7%
inhibition at 10 µM (SW1463 (colon); 10 μM): 90.1%
inhibition at 10 µM (H2122 (lung); 10 μM): 78.1%
IC50 (KYSE-410 (esoph)): > 10000 nM
inhibition at 10 µM (KYSE-410 (esoph); 10 μM): 63.2%
IC50 (LXFA-983L (lung)): > 10000 nM
inhibition at 10 µM (LXFA-983L (lung); 10 μM): 68.8%
inhibition at 10 µM (A549 (lung); 10 μM, read-out: % inh. @ 10 μM): 18.8%
inhibition at 12.5 mg/kg (pERK; single oral dose 12.5 mg/kg): 26.9%
inhibition at 25 mg/kg (pERK; single oral dose 25 mg/kg): 53.2%
inhibition at 50 mg/kg (pERK; single oral dose 50 mg/kg): 54%
inhibition at 100 mg/kg (pERK; single oral dose 100 mg/kg): 74.8%
inhibition at 10 µM (Calu-1 (lung); 10 μM): 50.6%

Source: patent US20230339968A1, “KRAS Gl2C INHIBITORS” (Eli Lilly and Company, priority 2019, published 2023)
